How the values were obtained:
HIF-1α [1] = experiment: HIF-1α expression in LNCaP cells (immunoblot of nuclear and whole-cell extracts); assay type: cell-based, human; conditions: for reduction of HIF-1α expression/accumulation (nuclear fraction): citrate-producing cell cultured under hypoxia
From the text: (§1) See Franklin et al.; 1995, Endocrine 3:603-607. […] 20108 USA. Methods: […]

HIF-1α [2] = experiment: HIF-1α expression in PC3 cells (immunoblot of nuclear and whole-cell extracts); assay type: cell-based, human; conditions: 4 hours, dose-dependent
From the text: as §1

[3] = tested on: actin, caspase 3, NF-κB, IκBα; experiment: Protein levels of actin, caspase 3, NF-κB, IκBα (immunoblot, specificity control); assay type: cell-based, human; conditions: all concentrations tested except 800 μM
Protocol: Methods: Cells were plated at a density of 5×10^5 cells into a dish, and then maintained in 37° C. incubator (5% CO2) for 2 days. Prior to the assay, cells were rinsed twice with pre-warmed (37° C.) RPMI-1640 Medium (ATCC No. 30-2001; 10 mM HEPES; 1 mM sodium pyruvate; 2 mM L-glutamine; 4500 mg glucose/L; 1500 mg sodium bicarbonate/L). Cells were incubated with 2 ml of culture medium in the absence or presence of lonidamine at different concentrations for 4 hours at 37° C. either under normoxia or hypoxia (oxygen level <0.1%). At the end of the incubation, the dish was placed on ice, and the cells were washed rapidly twice with cold PBS buffer (4° C.). […] The protein concentration was measured using a Bio-Rad protein assay. […] To detect the expression of caspase 3, NF-κB, P65 and IκBα, the membrane was blocked with TBST-containing 5% non-fat milk for 1 h at room temperature, and the proteins were detected by incubation with the corresponding antibodies overnight at 4° C. and with the alkaline phosphatase-conjugated secondary antibody for 1 h. The specific protein was detected using a colorimetric substrate, and the intensity of each protein was quantified using an NIH image system.

LNCaP cells = experiment: Apoptosis (caspase 3 activation) in citrate-producing LNCaP cells; assay type: cell-based, human
Protocol: (§2) Immunoblotting: Immunoblotting was carried out as described in Example 2. […] Apoptosis assay: […] Lonidamine was added into each well at different concentrations, and then incubated for 6 h at 37° C. To assess the caspase 3 activity, the homogeneous buffer and caspase 3 substrate (Promega No G7791; Promega Corporation, 2800 Woods Hollow Road, Madison Wis. USA 53711) were added into each well in the presence or absence of caspase 3 inhibitor (Promega No G5961). The fluorescence intensity of cleaved substrate was determined using a fluorescence plate reader at excitation 485 nm and emission 530 nm.

PC3 cells = experiment: Apoptosis (caspase 3 activation) in citrate-oxidizing PC3 cells; assay type: cell-based, human; conditions: LNCaP vs PC3 (citrate-oxidizing) cells
Protocol: as §2

[4] = tested on: human prostate epithelial cells; experiment: Apoptosis assay in primary cultures of prostate epithelial cells; assay type: cell-based; conditions: primary cultures of prostate epithelial cells (accumulate citrate)
Protocol: (§3) Primary Cell Cultures: Primary cultures of human prostate epithelial cells (Cambrex No CC-2555) and human prostate stromal cells (Cambrex No CC-2508) were obtained from Cambrex Bio Science Rockland, Inc. (191 Thomaston Street, Rockland, Me. 04841). Apoptosis assay: […] Lonidamine was added into each well at different concentrations, and then incubated for 6 h at 37° C. To assess the caspase 3 activity, the homogeneous buffer and caspase 3 substrate (Promega No G7791; Promega Corporation, 2800 Woods Hollow Road, Madison Wis. USA 53711) were added into each well in the presence or absence of caspase 3 inhibitor (Promega No G5961). The fluorescence intensity of cleaved substrate was determined using a fluorescence plate reader at excitation 485 nm and emission 530 nm.

[5] = tested on: human prostate stromal cells; experiment: Apoptosis assay in primary cultures of prostate stromal cells; assay type: cell-based; conditions: primary cultures of prostate stromal cells (do not accumulate citrate)
Protocol: as §3

O=C(O)c1nn(Cc2ccc(Cl)cc2Cl)c2ccccc12 [lonidamine, 1-(2,4-dichlorobenzyl)-1H-indazole-3-carboxylic acid]
level of HIF-1α protein in nuclear and whole-cell extracts (HIF-1α [1]; LNCaP cells, hypoxic conditions (oxygen <0.1%), 4 hours, dose-dependent): reduced the level of HIF-1α protein
reduction of HIF-1α expression/accumulation (nuclear fraction) (HIF-1α [1]; 200 micromolar lonidamine): about 2 fold
reduction of HIF-1α expression/accumulation (nuclear fraction) (HIF-1α [1]; higher lonidamine concentrations (above 200 micromolar)): more than 5 fold
effect on HIF-1α expression, LNCaP compared with PC3 (HIF-1α [1]; hypoxic conditions (oxygen level <0.1%), LNCaP vs PC3): more pronounced in LNCaP cells than in PC3 cells
level of HIF-1α protein in nuclear and whole-cell extracts (HIF-1α [2]; hypoxic conditions (oxygen <0.1%)): reduced the level of HIF-1α protein
level of HIF-1α protein in nuclear and whole-cell extracts (HIF-1α [2]; normoxic conditions): reduced the level of HIF-1α protein
inhibition of protein levels of actin, caspase 3, NF-κB, or IκBα [3]: no detectable inhibition
activation of caspase 3 (LNCaP cells; LNCaP (citrate-producing) cells): induced activation of caspase 3
time course of caspase 3 activation (LNCaP cells; lonidamine-treated cells): time-dependent process
activation of caspase 3, LNCaP compared with PC3 (PC3 cells): to a much greater extent than in citrate-oxidizing cells (PC3)
induction of apoptosis [4]: induced apoptosis only in prostate epithelial cells in a dose-dependent manner
induction of apoptosis [5]: induction of apoptosis was not observed
